Source: the supplement of paper PMC10331698
± gives the standard deviation of the averaged measurements.

Legend:
Assay in all cases: level (log10 ratio to DMSO vehicle control); higher = higher biomarker level / cell amount than vehicle control
Conditions in all cases: in DMSO
Pentafluoropropionamide = compound: NC(=O)C(F)(F)C(F)(F)F [Pentafluoropropionamide]
Method: (§1)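 BioMAP Diversity Plus panel of 12 human primary cell co-culture systems (3C, 4H, LPS, SAg, BT, BF4T, BE3C, CASM3C, HDF3CGF, KF3CT, MyoF, Mphg). Compounds were added 1 h before stimulation and left for 24 h (MyoF 48 h; BT 72 h for soluble read-outs or 6 d for IgG). Biomarkers were read by ELISA, cytotoxicity by SRB, PBMC viability and proliferation by Alamar Blue. Each well value was divided by the mean of 8 DMSO control wells on the same plate and log10 transformed; duplicate blinded samples were tested at 4 concentrations.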

[1] = compound: O=C(O)C(F)(F)C(F)(F)C(F)F [4H-Perfluorobutanoic acid]
Method: as §1

Perfluoropentanoic acid = compound: O=C(O)C(F)(F)C(F)(F)C(F)(F)C(F)(F)F [Perfluoropentanoic acid]
Method: as §1

[2] = compound: O=C(O)C(F)(F)C(F)(F)OC(F)(F)F [Perfluoro-3-methoxypropanoic acid]
Method: as §1

[3] = compound: FC(F)(F)C(F)(C(F)(F)F)C(F)(F)C(F)(F)CC1CO1 [3-(Perfluoro-3-methylbutyl)-1,2-propenoxide]
Method: as §1

[4] = compound: O=C(O)C(F)(F)C(F)(F)C(F)(F)OC(F)(C(F)(F)F)C(F)(F)F [Perfluoro-4-isopropoxybutanoic acid]
Method: as §1

[5] = compound: O=S(=O)(O)C(F)(F)C(F)(F)C(F)(F)C(F)(F)C(F)(F)C(F)(F)F [Perfluorohexanesulfonic acid]
Method: as §1

Test System | level (log10) (Pentafluoropropionamide; 6700 nM) | level (log10) (Pentafluoropropionamide; 20000 nM) | level (log10) (Pentafluoropropionamide; 60000 nM) | level (log10) ([1]; 6700 nM) | level (log10) ([1]; 20000 nM) | level (log10) ([1]; 60000 nM) | level (log10) (Perfluoropentanoic acid; 6700 nM) | level (log10) (Perfluoropentanoic acid; 20000 nM) | level (log10) (Perfluoropentanoic acid; 60000 nM) | level (log10) ([2]; 6700 nM) | level (log10) ([2]; 20000 nM) | level (log10) ([2]; 60000 nM) | level (log10) ([3]; 6700 nM) | level (log10) ([3]; 20000 nM) | level (log10) ([4]; 6700 nM) | level (log10) ([4]; 20000 nM) | level (log10) ([4]; 60000 nM) | level (log10) ([5]; 6700 nM) | level (log10) ([5]; 20000 nM) | level (log10) ([5]; 60000 nM)
BT:sIL-2 | 0.0375 ± 0.0092 | 0.002 ± 0.03 | 0.038 ± 0.017 | 0.0065 ± 0.054 | -0.0275 ± 0.14 | -0.056 ± 0.017 | -0.0115 ± 0.17 | 0.0385 ± 0.00071 | 0.0385 ± 0.0078 | -0.002 ± 0.13 | -0.0015 ± 0.032 | 0.016 ± 0.0042 | -0.0405 ± 0.042 | 0.071 ± 0.072 | 0.0175 ± 0.042 | 0.007 ± 0.016 | 0.0175 ± 0.035 | -0.059 ± 0.031 | 0.0015 ± 0.035 | -0.001 ± 0.027
BF4T:CD90 | -0.0025 ± 0.0064 | 0.0005 ± 0.0064 | -0.0045 ± 0.015 | 0.0045 ± 0.0035 | 0.0095 ± 0.011 | 0.01 ± 0.028 | -0.02 ± 0.0085 | -0.0105 ± 0.005 | -0.0025 ± 0.025 | -0.012 ± 0.021 | -0.0165 ± 0.013 | -0.0095 ± 0.0035 | -0.0175 ± 0.00071 | -0.0165 ± 0.03 | -0.002 ± 0.0057 | -0.025 ± 0.0028 | -0.0075 ± 0.012 | -0.001 ± 0.014 | -0.0115 ± 0.0078 | -0.0305 ± 0.0064
3C:Proliferation | -0.0095 ± 0.05 | -0.0165 ± 0.0064 | -0.0115 ± 0.029 | -0.023 ± 0.02 | -0.03 ± 0.041 | 0.013 ± 0.065 | -0.029 ± 0.028 | 0.011 | 0.0015 ± 0.046 | -0.0295 ± 0.056 | -0.023 ± 0.03 | -0.0135 ± 0.037 | -0.014 ± 0.016 | -0.002 ± 0.042 | -0.0195 ± 0.05 | 0.002 ± 0.098 | -0.0325 ± 0.046 | -0.042 ± 0.034 | -0.0525 ± 0.054 | -0.0305 ± 0.022
BT:sTNF-alpha | 0.0135 ± 0.0078 | 0.0225 ± 0.081 | -0.0025 ± 0.0092 | -0.0585 ± 0.022 | -0.055 ± 0.0071 | -0.048 ± 0.13 | -0.0575 ± 0.25 | 0.0875 ± 0.012 | 0.105 ± 0.04 | 0.055 ± 0.035 | -0.0805 ± 0.084 | 0.0205 ± 0.17 | 0.0545 ± 0.076 | 0.0925 ± 0.093 | -0.0005 ± 0.076 | 0.026 ± 0.083 | 0.085 ± 0.078 | 0.024 ± 0.13 | -0.011 ± 0.034 | -0.0495 ± 0.044
BF4T:CCL2/MCP-1 | -0.0075 ± 0.0035 | -0.0195 ± 0.00071 | 0.001 ± 0.025 | -0.012 ± 0.0085 | 0.004 ± 0.011 | 0.0475 ± 0.069 | 0.004 ± 0.047 | -0.0035 ± 0.052 | -0.0275 ± 0.025 | 0.0075 ± 0.026 | 0.0115 ± 0.043 | 0.0535 ± 0.054 | -0.011 ± 0.011 | -0.0035 ± 0.0092 | 0.0235 ± 0.046 | 0.0325 ± 0.084 | 0.045 ± 0.078 | 0.028 ± 0.045 | -0.0075 ± 0.013 | -0.042 ± 0.037
BT:PBMC Cytotoxicity | 0.0065 ± 0.042 | 0.013 ± 0.034 | -0.02 ± 0.0014 | -0.0175 ± 0.018 | -0.0075 ± 0.0035 | -0.002 ± 0.047 | 0.0075 ± 0.035 | -0.0055 ± 0.0078 | 0.0255 ± 0.013 | -0.0195 ± 0.061 | -0.0215 ± 0.019 | -0.0005 ± 0.029 | -0.0055 ± 0.023 | 0.005 ± 0.013 | 0.02 ± 0.0028 | -0.0165 ± 0.0021 | 0.056 ± 0.016 | 0.0015 ± 0.016 | 0.0325 ± 0.0035 | 0.061 ± 0.0057
4H:CD62P/P-selectin | -0.023 ± 0.054 | -0.0265 ± 0.0078 | -0.0475 ± 0.03 | -0.0185 ± 0.042 | 0.0005 ± 0.057 | -0.011 ± 0.04 | -0.0025 ± 0.067 | -0.023 ± 0.03 | -0.0285 ± 0.043 | -0.004 ± 0.0057 | 0.005 ± 0.011 | 0.0065 ± 0.029 | -0.0085 ± 0.0064 | 0.0305 ± 0.012 | 0.001 ± 0.021 | 0.0165 ± 0.012 | 0.048 ± 0.033 | 0.008 ± 0.058 | 0.0555 ± 0.043 | 0.112 ± 0.066
